Patent US9315544B2, “Method of treating eosinophilia by administering an immunomodulating peptide” (National Tsing Hua University, priority 2012, dated 2016)

Experiments:
[1] = test system: mite-induced airway inflammation; assay: Lung histopathology (H&E), peri-bronchiolar and alveolar inflammation scores; assay type: in vivo, BALB/c mouse
Text: (§1) FIG. 4 illustrates experimental design. All groups except control group were immunized with mite crude extract allergen on days 1 and 8, then mite crude extract allergen intratracheally on day 15 in all mite treated group, BALB/c mouse were divided into six groups (1) control group (PBS), (2) mites delivered intratracheally (mIT, mite on day 15) alone, (3) CMP intranasal (eIN, CMP on days 1 to 22) alone, (4) preventive-treatment group (eIN+mIT, CMP on days 1 to 14, mite on day 15) (5) therapy-treatment group (mIT+eIN, mite on day 15, CMP on days 15 to 22), and (6) preventive- and therapeutic-treatment group (eIN+mIT+eIN, CMP on days 1 to 22, mite on day 15).
FIG. 6A-6B illustrates inhibitory effect of CMP on influx of inflammatory cells. […] (A) Scores for peri-bronchiolar, alveolar inflammation and (B) PAS were determined based on the histological sections. Each result was expressed as the mean±S.D., n=4. ***, P<0.001. […]
The formalin-fixed lung sections stained with hematoxylin and eosin (H&E) were assigned a unit value for alveolar, peri-bronchiolar, and total inflammation by computing the means of three independent scores for three randomly selected fields. […] For evaluating the hyperplasia goblet cells, medium-sized airways were assessed in sections stained with periodic acid-Schiff (PAS) stain. Two reviewers independently and randomly scored 10 fields of each slide. […]

mite-specific IgE = assay: Serum mite-specific IgE by ELISA; assay type: in vivo, BALB/c mouse
Text: as §1
FIG. 8 illustrates inhibitory effect of CMP on serum IgE level. […] Levels of serum Derp-specific IgE were measured by enzyme-linked immunosorbent assay (ELISA). Each result was expressed as the mean±S.D., n=4. *, P<0.05, **, P<0.01. […]
Mite protein (5 μg) was coated on the plated at 4° C. overnight. […] The levels of serum mite-specific IgE were measured by enzyme-linked immunosorbent assay (ELISA).
To further analyze therapeutic effect of CMP on mite sensitization, serum mite-specific IgE levels in mice were measured from all six treatment groups. […]

human lung cancer A549 = assay: Transwell migration assay, A549; assay type: cell-based; conditions: 5 μM CMP pretreatment 30 min, 18 hours
Procedure: FIG. 10 illustrates Tumor migration inhibition by CMP. A549, H460 and mouse colon cancer cells were incubated with CMP at 37° C. for 30 min before adding to the top chamber of transwell membranes in 24-well dishes at a density of 2×10^4 cells/well. Data represented the mean±S.E. of triplicate samples from a representative experiment. The experiment was repeated at least three times with similar results
Cancer cell inhibition by CMP was performed in a 24-well Transwell chamber consisting of a cell culture insert (6.4 mm diameter, 8-1 μm pore polyethylene tetraphtalate membrane, [Becton Dickinson]) set in each well of a 24-well companion plate (Becton Dickinson). Briefly, 3×10^4 cancer cells were suspended and pretreated with 5 and 12.5 μM CMP for 30 min in a total volume of 200 μL. Cell suspensions were inoculated into the upper chamber of an insert, 5% fetal bovine serum (FBS) in medium as a chemoattractant was added to the plate well in the bottom chamber, and incubated for 18 hours in a humidified incubator at 37° C. with 5% CO2. The non-migratory cells on the upper membrane surface were removed with a cotton swab, and the migratory cells attached to the lower membrane surface were fixed with 4% paraformaldehyde and stained with 0.2% crystal violet. The number of migrated cells was counted in four randomly selected high power fields under microscope. […]

[2] = test system: bronchial epithelial cell; conditions: cited from earlier work

Sequence: NYRWRCKNQN (CMP)
- effect on peribronchiolar, alveolar inflammation and goblet cells hyperplasia ([1]; eIN+mIT+eIN compared with eIN+mIT and mIT+eIN group): more potently suppressive effect
- peri-bronchiolar and alveolar scores compared with mIT group ([1]; eIN+mIT+eIN group (CMP days 1 to 22)): significantly lower
- serum mite-specific IgE level compared with mIT group (mite-specific IgE; eIN+mIT+eIN group, day 23): much lower
- serum mite-specific IgE reading of mIT group compared with CMP groups (mite-specific IgE; mIT vs eIN+mIT, mIT+eIN and eIN+mIT+eIN groups, day 18): higher
- decrease of migration activity (human lung cancer A549): 60%
- cytotoxic effect on bronchial epithelial cell [2]: no cytotoxic effect
